From ChEMBL document CHEMBL1151558, “An efficient synthesis and biological activities of 19-nor-17-hydroxy-17-trifluoromethyl-4-estren-3-one and its analogs” (Bioorg Med Chem Lett, 1995)

Tests used:
[1] = target: T1, Progesterone receptor (Rattus norvegicus) (UniProt Q63449); test: Binding affinity for cytosolic progesterone receptor (PRc) of rat uterus compared to RU-486
T1 sequence (whole entry): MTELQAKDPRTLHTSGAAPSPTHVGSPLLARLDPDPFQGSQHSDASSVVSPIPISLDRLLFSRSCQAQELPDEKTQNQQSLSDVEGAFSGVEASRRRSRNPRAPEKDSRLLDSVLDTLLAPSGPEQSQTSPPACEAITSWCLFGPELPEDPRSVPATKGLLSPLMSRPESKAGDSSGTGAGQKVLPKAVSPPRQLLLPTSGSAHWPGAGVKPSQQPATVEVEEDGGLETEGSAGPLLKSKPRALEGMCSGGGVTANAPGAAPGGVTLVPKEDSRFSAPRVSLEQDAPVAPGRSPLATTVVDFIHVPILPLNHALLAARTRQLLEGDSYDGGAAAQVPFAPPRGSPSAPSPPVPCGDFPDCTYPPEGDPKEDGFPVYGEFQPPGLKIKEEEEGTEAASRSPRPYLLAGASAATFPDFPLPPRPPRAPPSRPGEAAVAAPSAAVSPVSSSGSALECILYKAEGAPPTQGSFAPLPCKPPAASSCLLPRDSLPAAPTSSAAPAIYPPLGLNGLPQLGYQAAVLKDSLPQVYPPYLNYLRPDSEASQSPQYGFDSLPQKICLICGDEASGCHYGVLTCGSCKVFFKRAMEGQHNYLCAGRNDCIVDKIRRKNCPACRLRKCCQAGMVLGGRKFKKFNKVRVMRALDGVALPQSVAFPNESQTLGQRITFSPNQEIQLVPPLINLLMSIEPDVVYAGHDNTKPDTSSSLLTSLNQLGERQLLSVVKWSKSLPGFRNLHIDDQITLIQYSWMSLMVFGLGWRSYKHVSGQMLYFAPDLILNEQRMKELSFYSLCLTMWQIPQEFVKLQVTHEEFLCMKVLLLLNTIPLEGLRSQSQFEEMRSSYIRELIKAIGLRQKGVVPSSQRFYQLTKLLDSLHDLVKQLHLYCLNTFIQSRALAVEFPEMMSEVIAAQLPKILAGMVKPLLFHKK

Progesterone receptor = target: T2, Progesterone receptor (Rattus norvegicus, UniProt Q63449); test: Inhibition of [3H]R5020 binding to cytosolic progesterone receptor (PRc) of rat uterus
T2 sequence (Q63449 whole entry): T1 sequence (whole entry)

With `CC#C[C@]1(O)CC[C@H]2[C@@H]3CCC4=CC(=O)CCC4=C3[C@@H](c3ccc(N(C)C)cc3)C[C@@]21C` as the compound, how does the relative binding affinity (RBA) [1] read?
The relative binding affinity (RBA) was 100.

With `C[C@]12CCC3=C4CCC(=O)C=C4CCC3C1CC[C@@]2(O)C(F)(F)F` (some centres not stated) as the compound, how does the IC50 (Progesterone receptor) read?
Its IC50 is 4.5 nM.

What about the relative binding affinity (RBA) [1] of the same compound?
Its relative binding affinity (RBA) is 77.8.

Which results are given for `C[C@]12CCC3C(CCC4=CC(=O)CC[C@@H]43)C1CC[C@@]2(O)C(F)(F)F` (some centres not stated)?
IC50 (Progesterone receptor): 1.2 nM; relative binding affinity (RBA) [1]: 292

How did the IC50 (Progesterone receptor) turn out when `C[C@]12C=CC3=C4CCC(=O)C=C4CCC3C1CC[C@@]2(O)C(F)(F)F` (some centres not stated) was run?
Its IC50 is 9 nM.

What about the relative binding affinity (RBA) [1] of the same compound?
Its relative binding affinity (RBA) is 38.9.
